The results in this text go back to patent US9012420B2, “Aptamer for chymase, and use thereof” (Ribomic Inc., priority 2009, dated 2015).

Oligonucleotides are written 5' to 3', each unit as a sugar letter and its base; * is a phosphorothioate linkage, no mark a phosphodiester; rarer units and linkages stand in square brackets, end groups in braces. Plain capitals give the bases only. r = 2'-OH (RNA); f = 2'-fluoro

The target of series [1] is T1, recombinant chymase (expressed by yeast) (Homo sapiens, UniProt P23946).
T1 construct: purchased SIGMA; host or cells: yeast
T1 sequence (P23946 22-247): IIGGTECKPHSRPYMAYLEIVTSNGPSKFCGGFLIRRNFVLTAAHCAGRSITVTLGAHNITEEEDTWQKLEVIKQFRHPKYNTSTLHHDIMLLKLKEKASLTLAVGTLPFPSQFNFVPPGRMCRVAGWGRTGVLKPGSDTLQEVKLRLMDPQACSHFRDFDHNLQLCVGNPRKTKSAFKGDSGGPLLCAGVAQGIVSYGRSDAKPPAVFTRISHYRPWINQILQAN
The series is described as follows: Chymase inhibitory activity using angiotensin I as substrate, recombinant chymase. The format is biochemical. As to conditions: final 50 μM, chymase 0.2-0.5 nM, 37° C. 90 min, one measurement. The procedure:
(§1) A second method of evaluation employs a native substrate. A useful native substrate for chymase is angiotensin I. Here, His-Leu, a peptide fragment released upon degradation of angiotensin I, is fluorescently derivatized, and the fluorescence intensity therefrom is quantified.
(§2) In the assay, an enzyme reaction is carried out in 50 μL of solution C. First, 0.3-0.75 ng of chymase (recombinant, manufactured by SIGMA; or native, manufactured by Calbiochem) is diluted in solution C to obtain 5 μL chymase solution. Each nucleic acid is prepared in solution C to obtain 25 μL solutions. 5 μL of each chymase dilution and 25 μL of each nucleic acid solution are mixed, and then the mixture is incubated at 37° C. for 5 minutes. […] The angiotensin I solution is added to the mixture of chymase and nucleic acid, and the enzyme reaction is initiated. After the reaction was allowed to proceed at 37° C. for 90 minutes, 25 μL of ice-cooled 30% trichloroacetic acid solution is added to terminate the reaction. The entire mixture is centrifuged at 4° C., 14000 rpm for 10 minutes, and 30 μL of the resulting supernatant is used for the subsequent reaction for fluorescent derivatization.
(§3) After 30 μL of the supernatant is added to a 96-well plate (Black, manufactured by Costar), 15 μL of 2% o-phthalaldehyde (manufactured by SIGMA) solution in methanol and 170 μL of 0.3M NaOH solution are mixed in each well, and the plate is allowed to stand at room temperature for 10 minutes. Subsequently, 25 μL of 3M HCl solution is added to terminate the reaction. The plate is set to the microplate reader SpectraMax190 (manufactured by Molecular Devices Corporation), and the fluorescence intensity is determined at an excitation wavelength of 355 nm and a fluorescence wavelength of 460 nm.
(§4) For control, samples are treated and analyzed in the same manner in two cases: use of SEQ ID NO: 58 (negative control) and use of chymostatin, a known chymotrypsin-like serine protease inhibitor (positive control). In both cases, fluorescence intensity obtained at 0 minute reaction time serves as a blank determination. Taking the fluorescence intensity detected with the addition of an equal volume of solution C, in place of each nucleic acid, in the chymase enzyme reaction as 100%, the inhibitory rate for each test substance is calculated, and the inhibitor concentration required to cause a 50% inhibition of the enzyme activity (IC50) is determined.
(§5) For further assessment of the inhibitory activity of the nucleic acid of the present invention, the enzyme activity of chymase was measured using angiotensin I, which is a native substrate for chymase, according to the following method. Angiotensin I is converted by chymase to angiotensin II, during which a peptide fragment His-Leu is released. Since the peptide His-Leu is fluorescently derivatized by o-phthalaldehyde, its fluorescence intensity can be quantitatively measured.
(§6) The total volume of solution for an enzyme reaction in the assay was set to 50 μL, and the reaction was performed in solution C buffer. First, 0.3-0.75 ng of chymase (recombinant, (manufactured by SIGMA) or native (manufactured by Calbiochem)) was diluted with solution C to give 5 μL thereof. Here, the recombinant is chymase expressed by yeast, and the native is chymase purified from human skin mast cell. The nucleic acid was serially diluted with solution C at a concentration of 0.0027-2 μM to give 25 μL thereof. The chymase solution (5 μL) and the nucleic acid solution (25 μL) were mixed, and the mixture was incubated at 37° C. for 5 min. On the other hand, […] angiotensin I (manufactured by PEPTIDE INSTITUTE, INC.) was prepared in solution C to give […] thereof, which was incubated at 37° C. for 5 min. The angiotensin I solution was added to a mixture of chymase and nucleic acid to start an enzyme reaction. The final chymase concentration of the reaction solution was 0.2-0.5 nM, and the final substrate concentration was 50 μM. […]

For series [2], the target named is T2, native chymase (purified from human skin mast cell) (Homo sapiens, UniProt P23946).
T2 construct: the native is chymase purified from human skin mast cell; purchased Calbiochem; host or cells: human skin mast cell
T2 sequence (P23946 22-247): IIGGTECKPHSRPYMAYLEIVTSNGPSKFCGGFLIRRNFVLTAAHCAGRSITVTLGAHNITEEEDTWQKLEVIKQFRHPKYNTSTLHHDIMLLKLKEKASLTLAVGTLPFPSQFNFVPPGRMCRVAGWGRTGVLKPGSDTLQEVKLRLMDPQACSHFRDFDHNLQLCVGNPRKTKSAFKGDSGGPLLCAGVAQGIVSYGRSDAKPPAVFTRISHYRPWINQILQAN
Description: Chymase inhibitory activity using angiotensin I as substrate, native chymase. As to conditions: final 50 μM, chymase 0.2-0.5 nM, 37° C. 90 min, one measurement. The format is biochemical. The procedure: as §1, §2, §3, §4, §5, §6

For “53 (GGGUAACUAUGGUUAGAUAGAGUUAAAAACCAUAGAAGACCC; 2'-fluoro at CU, RNA at AG, backbone not given here) [compound 53]”, the IC50 – broadly, the concentration needed to halve the response being measured – came to 446 nM in series [1] and 764 nM in series [2].

In the case of “54 (UAACUAUGGUUAGAUAGAGUUAAAAACCAUAGAAGA; 2'-fluoro at CU, RNA at AG, backbone not given here) [compound 54]”, the IC50 in series [1] worked out at 397 nM; in series [2] it was 614 nM.

Consider “55 (CUAUGGUUAGAUAGAGUUAAAAACCAUAG; 2'-fluoro at CU, RNA at AG, backbone not given here) [compound 55]”, for which the IC50 is 354 nM in series [1] and 606 nM in series [2].

Regarding “56 (GGGUUAGAUAGAGUUAAAAACCC; 2'-fluoro at CU, RNA at AG, backbone not given here) [compound 56]”, the IC50 in series [1] stood at 235 nM; in series [2], 508 nM.

With “65 (rGrGfCrArGrAfUrArGrArGfUfUrArArArGfCfC) [compound 65]”, the IC50 in series [1] was 274 nM; in series [2] it was 878 nM.

Regarding “70 (GGGTTAGAUAGAGUUAAAAACCC; chemistry not given here) [compound 70]”, the IC50 amounted to 239 nM in series [1] and 478 nM in series [2].

As for “71 (GGGUUAGAUAGAGTUAAAAACCC; chemistry not given here) [compound 71]”, the IC50 in series [1] is 161 nM; in series [2] it was 341 nM.

As for “72 (GGGTTAGAUAGAGTUAAAAACCC; chemistry not given here) [compound 72]”, the IC50 in series [1] was found to be 65 nM; in series [2] it was 120 nM.

Regarding `CC(C)C[C@H](NC(=O)[C@@H](NC(=O)N[C@@H](Cc1ccccc1)C(=O)O)[C@@H]1CCN=C(N)N1)C(=O)N[C@H](C=O)Cc1ccccc1` [chymostatin, reference compound], the values for the IC50 in series [1] and in series [2] were 450 to 600 nM and 350 to 500 nM, respectively.

Regarding “GGGU(F)U(F)GAAGAU(F)AU(F)U(F)AAAGAAC(F)C(F)C(F) (GGGUUGAAGAUAUUAAAGAACCC; 2'-fluoro at CU, RNA at AG, backbone not given here) [SEQ ID NO: 58]”, the concentration for half-maximal inhibition (IC50) in series [1] and in series [2] was > 1000 nM throughout.

B1: 14 (nucleic acid)
chain: rGrGrGrAfCrGrGfUrArGrGrArAfUfUfCfUfCrGfUfUfCfCfUrGrAfCrArGfCrAfUfUfUrGrArGrAfUrArGrAfUfUfUrArArAfCrArArAfCrGfCrAfCrAfUrArGrArArGrArGfCrGrGfCfCrGfC
modifications: aptamer
B1: the IC50 came to 22 nM in series [1] and 63 nM in series [2].

B2: 13 (nucleic acid)
chain: rGrGrGrAfCrGrGfUrArGrGrArAfUfUfCfCrGfCrArAfCfCrAfUfCfCfCrGfUrArAfCfUrAfUrGrGfUfUrArGrAfUrArGrArGfUfUrArArArArAfCfCrAfUrArGrArArGrArGfCrGrGfCfCrGfC
modifications: aptamer
With B2, the IC50 was 41 nM in series [1] and 74 nM in series [2].

B3: 4 (nucleic acid)
chain: rGrGrGrAfCrGrGfUrArGrGrArAfUfUfCrGfUfCfCrAfUfUfCfUrAfCrArGrAfUrArGrArGrAfUrArArArGfUrArGrArAfUfUfUrArAfCrArArArAfCrAfUrArGrArArGrArGfCrGrGfCfCrGfC
modifications: aptamer
Regarding B3, the values for the IC50 in series [1] and in series [2] were 3 nM and 31 nM, respectively.
